# Patent US8017637B2, “Inhibitors of cdc phosphatases” (Ipsen Pharma S.A.S., priority 2004, dated 2011)
# What was measured:
# [1] = biological target: T1, purified recombinant enzyme Cdc25-C (MBP-Cdc25C) (Homo sapiens, UniProt P30307); assay: Measurement of the phosphatase activity of the purified recombinant enzyme Cdc25C (OMFP dephosphorylation, fluorescence); type: biochemical; conditions: OMFP 500 μM, 4 hours at 30° C.
# T1 construct: made in house
# T1 sequence (P30307 1-473): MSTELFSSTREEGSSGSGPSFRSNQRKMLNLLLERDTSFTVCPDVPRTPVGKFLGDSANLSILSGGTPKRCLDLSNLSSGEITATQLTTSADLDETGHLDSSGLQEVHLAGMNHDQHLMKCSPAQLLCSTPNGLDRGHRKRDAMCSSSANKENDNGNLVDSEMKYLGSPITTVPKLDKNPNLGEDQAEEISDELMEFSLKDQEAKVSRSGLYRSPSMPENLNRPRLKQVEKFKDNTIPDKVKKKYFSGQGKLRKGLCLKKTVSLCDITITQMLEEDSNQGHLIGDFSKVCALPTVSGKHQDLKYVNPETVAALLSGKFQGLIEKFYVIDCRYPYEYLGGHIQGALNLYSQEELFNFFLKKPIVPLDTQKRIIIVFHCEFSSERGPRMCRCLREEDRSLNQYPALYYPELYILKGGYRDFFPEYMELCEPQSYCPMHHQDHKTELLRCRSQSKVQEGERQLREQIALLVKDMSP
# Protocol: i) Measurement of the Phosphatase Activity of the Purified Recombinant Enzyme Cdc25C
# The phosphatase activity of the protein MBP-Cdc25C is evaluated by the dephosphorylation of 3-O-methylfluorescein-phosphate (OMFP) to 3-O-methylfluorescein (OMF) with a determination of the fluorescence at 475 nm of the reaction product. This test makes it possible to identify inhibitors of the recombinant enzyme cdc25. The preparation of the fusion protein MBP-Cdc25C is described in the Patent Application PCT WO 01/44467.
# The reaction is carried out in 384-well plate format at a final volume of 50 μl. The protein MBP-Cdc25C (prepared as described above) is preserved in the following elution buffer: 20 mM Tris-HCl pH 7.4; 250 mM NaCl; 1 mM EDTA; 1 mM of dithiothreitol (DTT); 10 mM maltose. It is diluted to a concentration of 60 μM in the following reaction buffer: 50 mM Tris-HCl pH 8.2; 50 mM NaCl; 1 mM DTT; 20% glycerol. Measurement of the background noise is carried out with the buffer without the addition of the enzyme. The products are tested at decreasing concentrations starting from 40 μM. The reaction is initiated by the addition of an OMFP solution at 500 μM final (prepared extemporaneously from a 12.5 mM stock solution in 100% DMSO (Sigma #M2629)). After 4 hours at 30° C. in a single-use 384-well plate, the fluorescence measured at OD 475 nm is read using a Victor^2 plate reader (EGG-Wallac). The determination of the concentration inhibiting the enzyme reaction by 50% is calculated from three independent experiments. Only the values contained in the linear part of the sigmoid are retained for linear regression analysis.
# [2] = system: Mia-Paca2 lines (human pancreatic cancer cells); assay: Anti-proliferative activity, WST1 colorimetric test, Mia-Paca2 cells; type: cell-based; conditions: MIA PaCa-2, 96 hours treatment, up to 10 μM, read-out: IC50 on the cell proliferation of the Mia-Paca2 lines
# Protocol: (§1) ii) Characterization of Anti-Proliferative Activity:
# (§2) By way of example, the effect of a treatment by the compounds of the examples described previously on two lines of human Mia-Paca2 and DU145 cells will be studied. The cell lines DU145 (human prostate cancer cells) and Mia-PaCa2 (human pancreatic cancer cells) were acquired from the American Tissue Culture Collection (Rockville, Md., USA). The cells placed in 80 μl of Dulbecco's Modified Eagle medium (Gibco-Brl, Cergy-Pontoise, France) completed with 10% foetal calf serum inactivated by heating (Gibco-Brl, Cergy-Pontoise, France), 50,000 units/l of penicillin and 50 mg/l streptomycin (Gibco-Brl, Cergy-Pontoise, France), and 2 mM of glutamine (Gibco-Brl, Cergy-Pontoise, France) were seeded on a 96-well plate on day 0. The cells were treated on day 1 for 96 hours at increasing concentrations of each of the compounds to be tested up to 10 μM. At the end of the of this period, quantification of the cell proliferation is evaluated by a colorimetric test based on the cleavage of the tetrazolium salt WST1 by the mitochondrial dehydrogenases in the viable cells leading to the formation of formazan (Boehringer Mannheim, Meylan, France). These tests are carried out in duplicate with 8 determinations per concentration tested. For each compound to be tested, the values included in the linear part of the sigmoid were retained for linear regression analysis and used in order to estimate the inhibitory concentration IC50. The products are solubilized in dimethylsulphoxide (DMSO) at to 10^−2M and finally used in culture with 0.1% DMSO.
# [3] = system: DU-145 lines (human prostate cancer cells); assay: Anti-proliferative activity, WST1 colorimetric test, DU145 cells; type: cell-based; conditions: 96 hours treatment, up to 10 μM, read-out: IC50 on the cell proliferation of the DU-145 lines
# Protocol: as §1, §2
SMILES,IC50 [1] [µM],IC50 [2] [µM],IC50 [3] [µM],melting point [°C]
"CN(CCCNC1=CC(=O)c2sc(C(=O)NCCCN3CCCC3=O)nc2C1=O)CCCNC1=CC(=O)c2sc(C(=O)NCCCN3CCCC3=O)nc2C1=O [Example 7, 5.5′-[(methylimino)bis(propane-3,1-diylimino)]bis{4,7-dioxo-N-[3-(2-oxopyrrolidin-1-yl)propyl]-4,7-dihydro-1,3-benzothiazole-2-carboxamide}]",≤ 1,≤ 10,≤ 10,185 to 186
"CN(CCCNC1=CC(=O)c2nc(-c3cc(F)ccc3F)oc2C1=O)CCCNC1=CC(=O)c2nc(-c3cc(F)ccc3F)oc2C1=O [Example 8, 6.6′-[(methylimino)bis(propane-3,1-diylimino)]-bis[2-(2,5-difluorophenyl)-1,3-benzoxazole-4,7-dione]]",≤ 1,≤ 10,≤ 10,209 to 210
"CN(CCCNC1=CC(=O)c2nc(Cc3c(F)cccc3Cl)oc2C1=O)CCCNC1=CC(=O)c2nc(Cc3c(F)cccc3Cl)oc2C1=O [Example 10, 6.6′-[(methylimino)bis(propane-3,1-diylimino)]bis[2-(2-chloro-6-fluorobenzyl)-1,3-benzoxazole-4,7-dione]]",≤ 1,≤ 10,≤ 10,165 to 167
"CN(CCCNC1=CC(=O)c2nc(-c3cccc(Br)c3)oc2C1=O)CCCNC1=CC(=O)c2nc(-c3cccc(Br)c3)oc2C1=O [Example 11, 6.6′-[(methylimino)bis(propane-3,1-diylimino)]-bis[2-(3-bromophenyl)-1,3-benzoxazole-4,7-dione]]",≤ 5,≤ 10,≤ 10,199 to 200
"CN(CCCNC1=CC(=O)c2nc(-c3cccc(Cl)c3)oc2C1=O)CCCNC1=CC(=O)c2nc(-c3cccc(Cl)c3)oc2C1=O [Example 14, 6.6′-[(methylimino)bis(propane-3,1-diylimino)]-bis[2-(3-chlorophenyl)-1,3-benzoxazole-4,7-dione]]",≤ 1,≤ 10,≤ 10,196 to 197
"CN(CCCNC1=CC(=O)c2nc(-c3ccc(F)cc3)oc2C1=O)CCCNC1=CC(=O)c2nc(-c3ccc(F)cc3)oc2C1=O [Example 15, 6.6′-[(methylimino)bis(propane-3,1-diylimino)]-bis[2-(4-fluorophenyl)-1,3-benzoxazole-4,7-dione]]",≤ 1,≤ 10,≤ 10,204 to 205
Cc1nc2c(s1)C(=O)C=C(NCCCN(CCCNC1=CC(=O)c3sc(C)nc3C1=O)CCCNC1=CC(=O)c3sc(C)nc3C1=O)C2=O [Example 18],≤ 1,≤ 10,≤ 10,131 to 132
"Cc1nc2c(s1)C(=O)C=C(NCC1CCC(CNC3=CC(=O)c4sc(C)nc4C3=O)CC1)C2=O (stereo not shown) [Example 20, 5.5′-[cyclohexane-1,4-diylbis(methyleneimino)]bis(2-methyl-1,3-benzothiazole-4,7-dione)]",≤ 1,≤ 10,≤ 10,> 240
"CN(CCCNC1=CC(=O)c2scnc2C1=O)CCCNC1=CC(=O)c2scnc2C1=O [Example 25, 5.5′-[(methylimino)bis(propane-3,1-diylimino)]bis(1,3-benzothiazole-4,7-dione)]",≤ 1,≤ 10,≤ 10,223 to 224
"CN(CCCNC1=CC(=O)c2sc(C(=O)N3CCOCC3)nc2C1=O)CCCNC1=CC(=O)c2sc(C(=O)N3CCOCC3)nc2C1=O [Example 26, 5.5′-[(methylimino)bis(propane-3,1-diylimino)]bis[2-(morpholin-4-ylcarbonyl)-1,3-benzothiazole-4,7-dione]]",≤ 1,≤ 10,≤ 10,207 to 208
"CN(CCCNC1=CC(=O)c2nc(C(=O)N3CCCC3)sc2C1=O)CCCNC1=CC(=O)c2nc(C(=O)N3CCCC3)sc2C1=O [Example 31, 6.6′-[(methylimino)bis(propane-3,1-diylimino)]bis[2-(pyrrolidin-1-ylcarbonyl)-1,3-benzothiazole-4,7-dione]]",≤ 1,≤ 10,≤ 10,237 to 238
"CN(CCCNC1=CC(=O)c2sc(C(=O)Nc3ccc(F)cc3)nc2C1=O)CCCNC1=CC(=O)c2sc(C(=O)Nc3ccc(F)cc3)nc2C1=O [Example 32, 5.5′-[(methylimino)bis(propane-3,1-diylimino)]bis[N-(4-fluorophenyl)-4,7-dioxo-4,7-dihydro-1,3-benzothiazole-2-carboxamide]]",≤ 1,≤ 10,≤ 10,262 to 263
"COc1ccc(CNC(=O)c2nc3c(s2)C(=O)C=C(NCCCN(C)CCCNC2=CC(=O)c4sc(C(=O)NCc5ccc(OC)cc5)nc4C2=O)C3=O)cc1 [Example 33, 5.5′-[(methylimino)bis(propane-3,1-diylimino)]bis[N-(4-methoxybenzyl)-4,7-dioxo-4,7-dihydro-1,3-benzothiazole-2-carboxamide]]",≤ 1,≤ 10,≤ 10,174 to 175
"CN(CCCNC1=CC(=O)c2sc(C(=O)NC3CCCCC3)nc2C1=O)CCCNC1=CC(=O)c2sc(C(=O)NC3CCCCC3)nc2C1=O [Example 35, 5.5′-[(methylimino)bis(propane-3,1-diylimino)]bis(N-cyclohexyl-4,7-dioxo-4,7-dihydro-1,3-benzothiazole-2-carboxamide)]",≤ 1,≤ 10,≤ 10,145 to 146
"COc1ccc(C(=O)N2CCN(C(=O)c3nc4c(s3)C(=O)C=C(NCCCN(C)CCCNC3=CC(=O)c5sc(C(=O)N6CCN(C(=O)c7ccc(OC)cc7)CC6)nc5C3=O)C4=O)CC2)cc1 [Example 36, 5.5′-[(methylimino)bis(propane-3,1-diylimino)]bis(2-([4-(4-methoxybenzoyl)piperazin-1-yl]carbonyl)-1,3-benzothiazole-4,7-dione)]",≤ 1,≤ 10,≤ 10,202 to 203
"CN(CCCNC1=CC(=O)c2sc(C(=O)N3CCN(C(=O)c4ccco4)CC3)nc2C1=O)CCCNC1=CC(=O)c2sc(C(=O)N3CCN(C(=O)c4ccco4)CC3)nc2C1=O [Example 37, 5.5′-[(methylimino)bis(propane-3,1-diylimino)]bis(2-{[4-(2-furoyl)piperazin-1-yl]carbonyl}-1,3-benzothiazole-4,7-dione)]",≤ 1,≤ 10,≤ 10,173 to 174
